The values that follow come from ChEMBL document CHEMBL1201862, “PubChem BioAssay data set” (2004).

Test systems include OVCAR-5; RXF 393; HCT-15; MOLT-4; TK-10; HCT-116; UACC-257; U-251; MDA-MB-231; NCI-H226; UACC-62; OVCAR-4; SF-295; HCC 2998; OVCAR-3; SNB-75; IGROV-1; SK-MEL-2; SF-539; SR.
What all share (assay): NCI-60 cell line screen, 48 h

Structures are written as SMILES.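 Exposure lasted 48 hours, with cells grown in 96-well plates and compounds tested at five concentrations. The concentration for 50% growth inhibition is given as GI50.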 Calls of active or inactive are those of the source. Rule as the data show it: active = GI50 up to about 1.1 µM and inactive = higher.

`C[C@@](Br)(C(=O)O)[C@H](Br)C(=O)O`: the GI50 in the test on OVCAR-5 was > 100 µM (inactive); in the test with RXF 393 it was > 100 µM (inactive); in the test on HCT-15 it was greater than 100 µM; in the test on MOLT-4, > 100 µM (inactive); in the test with TK-10 it was > 100 µM (inactive); with HCT-116, > 100 µM (inactive). The GI50 in the test on UACC-257, with U-251, with MDA-MB-231, in the test with NCI-H226, in the test with UACC-62 and with OVCAR-4 was > 100 µM (inactive) in each case. The GI50 was > 100 µM (inactive) in the test with SF-295; > 100 µM (inactive) in the test with HCC 2998; > 100 µM (inactive) in the test with OVCAR-3; 81.3 µM (inactive) in the test on SNB-75; > 100 µM (inactive) in the test on IGROV-1.
As for `CC(=O)CC(=O)c1cc2c(=O)oc(C)cc2oc1=O`, the GI50 is > 37.5 µM (inactive) in the test on OVCAR-5; > 37.5 µM (inactive) with RXF 393; greater than 37.5 µM in the test with HCT-15; > 37.5 µM (inactive) in the test on MOLT-4; > 37.5 µM (inactive) in the test on TK-10; > 37.5 µM (inactive) with HCT-116. The GI50 in the test with UACC-257, in the test with U-251, in the test on NCI-H226, in the test on SK-MEL-2, with UACC-62 and with OVCAR-4 was > 37.5 µM (inactive) in each case. Moreover, the GI50 with SF-539 was > 37.5 µM (inactive); with SF-295, > 37.5 µM (inactive); in the test on HCC 2998 it was > 37.5 µM (inactive); in the test with SR, > 37.5 µM (inactive); with OVCAR-3, > 37.5 µM (inactive); with SNB-75 it was 2.75 µM (inactive). In addition, the GI50 in the test on IGROV-1 is > 37.5 µM (inactive).
Turning to `COC(=O)/C=C\C(C#N)(C#N)/N=C/c1cccs1`, the GI50 in the test on OVCAR-5 was 5.92 µM (inactive); with RXF 393, 2.51 µM (inactive); in the test on HCT-15, 2.13 µM; with MOLT-4, 0.982 µM (active); with TK-10, 1.76 µM (inactive); in the test with HCT-116, 8.69 µM (inactive). Besides, the GI50 with UACC-257 was 14.4 µM (inactive); with U-251, 16.6 µM (inactive); in the test on MDA-MB-231, 1.46 µM (inactive); with NCI-H226, 7.53 µM (inactive); with SK-MEL-2 it was 18.5 µM (inactive); in the test with UACC-62 it was 11.6 µM (inactive). For the same compound, the GI50 in the test on OVCAR-4 was 5.82 µM (inactive); with SF-295, 18.8 µM (inactive); in the test with HCC 2998, 18.9 µM (inactive); in the test on OVCAR-3, 11.1 µM (inactive); with SNB-75, 15.3 µM (inactive); with IGROV-1 it was 15.7 µM (inactive).
`O=C(c1ccco1)n1c2ccc(Br)cc2c2nc3ccccc3nc21`: the GI50 was > 100 µM (inactive) with OVCAR-5; 52 µM (inactive) in the test with RXF 393; 48.2 µM with HCT-15; 22 µM (inactive) with MOLT-4; 45.8 µM (inactive) in the test with TK-10; 46.7 µM (inactive) in the test on HCT-116. In addition, the GI50 in the test with UACC-257 was > 100 µM (inactive); in the test with U-251 it was 40.8 µM (inactive); in the test on NCI-H226 it was 68.4 µM (inactive); in the test with SK-MEL-2, 34.1 µM (inactive); in the test with UACC-62, 31.6 µM (inactive); in the test with OVCAR-4 it was 48.1 µM (inactive). The GI50 in the test with SF-539 was > 100 µM (inactive); in the test with SF-295 it was 72.8 µM (inactive); in the test with HCC 2998, 61.1 µM (inactive); in the test on SR, > 100 µM (inactive); in the test on OVCAR-3 it was 47.5 µM (inactive); in the test with SNB-75, 16.6 µM (inactive). Further, in the test with IGROV-1, the GI50 was 19.4 µM (inactive).
In the case of `O=C(N/C(=C\c1cc(Cl)ccc1Cl)c1nc2cc(Cl)ccc2[nH]1)c1ccccc1`, the GI50 in the test with OVCAR-5 was 21.2 µM (inactive); in the test on RXF 393, 15.4 µM (inactive); in the test on HCT-15, 16.4 µM; in the test with MOLT-4 it was 8.04 µM (inactive); with TK-10, 3.78 µM (inactive); with HCT-116 it was 10.5 µM (inactive). Further, the GI50 in the test on UACC-257 was 15 µM (inactive); in the test on U-251, 16.1 µM (inactive); with NCI-H226 it was 17.3 µM (inactive); in the test with SK-MEL-2 it was 13.7 µM (inactive); in the test on UACC-62, 11.4 µM (inactive); in the test with OVCAR-4, 25.8 µM (inactive). Also, the GI50 with SF-539 was 20.1 µM (inactive); in the test with SF-295 it was 16.1 µM (inactive); in the test with HCC 2998 it was 18.2 µM (inactive); in the test on SR, 5.43 µM (inactive); with OVCAR-3, 15.2 µM (inactive); in the test on SNB-75, 19.1 µM (inactive). For the same compound, the GI50 in the test on IGROV-1 was 13.1 µM (inactive).
As to `C=CCCCN1CCCCC1=S`, the GI50 was > 100 µM (inactive) with OVCAR-5; > 100 µM (inactive) in the test with RXF 393; greater than 100 µM in the test with HCT-15; > 100 µM (inactive) with MOLT-4; > 100 µM (inactive) in the test with TK-10; > 100 µM (inactive) in the test with HCT-116. Moreover, the GI50 with UACC-257, in the test on U-251, in the test with NCI-H226, in the test with SK-MEL-2, in the test with UACC-62 and in the test on OVCAR-4 was > 100 µM (inactive) in each case. Besides, the GI50 in the test on SF-539 was > 100 µM (inactive); with SF-295, > 100 µM (inactive); with HCC 2998, > 100 µM (inactive); in the test on SR, > 100 µM (inactive); in the test with OVCAR-3, > 100 µM (inactive); with SNB-75, 36.5 µM (inactive). The GI50 with IGROV-1 is > 100 µM (inactive).
In the case of `COC(=O)C1=C(\c2ccccc2)c2ccccc2C(=O)N(C2CCCCC2)/C=C\1`, the GI50 in the test on OVCAR-5 was 72.9 µM (inactive); with HCT-15 it was 24.1 µM; in the test with MOLT-4, > 100 µM (inactive); with TK-10, 41.3 µM (inactive); in the test on HCT-116, 19.4 µM (inactive); in the test on UACC-257, 12.5 µM (inactive). Also, the GI50 is 21 µM (inactive) with U-251; 17.2 µM (inactive) in the test on MDA-MB-231; 18.2 µM (inactive) in the test on NCI-H226; 12.9 µM (inactive) with SK-MEL-2; 27.7 µM (inactive) with OVCAR-4; 24 µM (inactive) in the test with SF-539. The GI50 in the test with SF-295 is 28 µM (inactive); with HCC 2998, 10.7 µM (inactive); in the test with OVCAR-3, 21.7 µM (inactive); in the test with SNB-75, 65.6 µM (inactive); in the test with IGROV-1 it was 25.8 µM (inactive).
Take `CC1(C)CC(=O)C(=CNC(=S)c2ccccc2)C(=O)C1`: the GI50 with OVCAR-5 was > 100 µM (inactive); with HCT-15 it was greater than 100 µM; in the test with MOLT-4 it was 13.6 µM (inactive); with TK-10 it was > 100 µM (inactive); in the test with HCT-116 it was > 100 µM (inactive); in the test on UACC-257, > 100 µM (inactive). Further, the GI50 in the test on U-251, with MDA-MB-231, in the test with NCI-H226, in the test with SK-MEL-2, with UACC-62 and in the test with OVCAR-4 was > 100 µM (inactive) throughout. For the same compound, the GI50 in the test with SF-539, in the test with SF-295, in the test on HCC 2998, in the test on OVCAR-3, in the test with SNB-75 and in the test with IGROV-1 was > 100 µM (inactive) throughout.
